The values that follow come from patent publication US20140023589A1, “FRMD4A ANTAGONISTS AND THEIR USES” (CANCER RESEARCH TECHNOLOGY LIMITED, priority 2011, published 2014).

For series [1], the system named is SCC13 back skin xenograft. Kind of series: SCC13 back skin xenograft, hyaluronic acid treatment. Type of series: in vivo, mouse. On the procedure:
(§1) All mice used were NOD.Cg-Prkdc^scid I12rg^tm1Wj1/SzJ or NOD/SCID Gamma (NSG) as they are commonly known. Mice were originally purchased from the Jackson Laboratories (Maine, USA) and then bred in-house. Experiments were subject to Cancer Research UK ethical review and were performed under the terms of a U.K. Government Home Office license. Tongue xenografts were carried out using inhalation anaesthesia and injection into the mucosa with a 30 g needle and 1 ml syringe. Mice were grafted using inhalation anaesthesia. An area of skin on the back of each mouse was shaved and cleaned with a betadine solution. Using a 6 mm punch biopsy punch a full thickness wound was created, into which the silicone chamber was inserted and stapled in place. A preparation of cells could then be injected into the chamber. After one week the top of the silicone chamber was cut off to allow the tumour to develop exposed to the normal skin-air interface. After a further week the whole silicone chamber was carefully removed. Mice were scanned with the Xenogen IVIS following an i.p. injection of luciferin (10 μl/g).
Mice were grafted into the back skin with 1×10E6 SCC13 cells.
After one week an initial measurement was made with the Xenogen IVIS. Following this, each mouse was directly injected into the tumour with 200 μl of 0.1% HA. […]

The subject of series [2] is CD44 and FRMD4A staining. In words: Immunostaining of cells grown on HA coated coverslips. Format: cell-based, human.
The test system of series [3] is SCC13 cells. In words: Colony forming assay, SCC13. The conditions noted are these: plates coated with HA. Type of series: cell-based, human. On the procedure: For colony forming assays, 100 cells were plated in triplicate in 10 cm plates. After 14 days, cultures were fixed and stained with 1% rhodamine B and 1% Nile blue (Acros Organic). Colony-forming efficiency was defined as the percentage of plated cells that formed a colony of three or more cells.

For series [4] the following is noted: injection in the skin and knee joint; cited from earlier work.
In series [5] the test system is SCC cells. In words: Incucyte timelapse growth of SCC cells (cell line not specified). Format: cell-based, human. Particulars: SCCs cultured on HA coated plates. On the procedure:
For Incucyte assays, 1000 cells were plated in triplicate for each condition, in a 48-well plate. Plates were imaged every 3 hours for 7 days.
Having established that FRMD4A has a functional role in SCC proliferation and tumour growth and that it is also modulating the differentiation of such cells, in part perhaps via cancer stem cells and is a key mediator of the Hippo pathway control in SCCs, the present inventors recognised that FRMD4A represents a potential target for therapeutic options. Currently many targeted antibody therapies are in clinical use or undergoing trials to determine their efficacy in the treatment of several malignant and non-malignant diseases. To test if any of the generated antibodies developed against FRMD4A may have a blocking effect on SCCs, the antibodies were added to cells grown in the Incucyte timelapse imaging system.

For series [6], the system named is normal human keratinocytes. Kind of series: Induced differentiation of normal human keratinocytes. Type of series: cell-based. An excerpt: To determine the expression of FRMD4A mRNA in normal human skin we carried out in-situ hybridisations on normal human foreskin. […] Using the Zeiss PALM Laser Capture Microdissection system, samples were collected separately from the basal and granular layers of human abdomen skin sections. […] Levels of FRMD4A were contrary to this, with high levels in the less differentiated basal layer, which dropped to almost nothing in the more differentiated granular layer (FIG. 1B). Similarly, normal human keratinocytes grown in serum free culture were induced to differentiate, by the addition of AG1478 and BMP2/7 (FIG. 1C). Differentiation of the keratinocytes was confirmed by increased levels of transglutaminase in the presence of these agents alone compared to treatment with vehicle alone. Addition of both together led to expression of even higher levels of the differentiation marker TG-1. FRMD4A levels were high in the vehicle treated sample, but became barely detectable in the differentiated samples (FIG. 1C) showing that FRMD4A is associated with less differentiated cell types.

The subject of series [7] is SCC13 cells. In words: SCC13 cells grown in the presence of 17-DMAG in vitro. Format: cell-based, human. The conditions noted are these: range of concentrations.
In series [8] the test system is SCC25 tongue xenograft. In words: SCC25 tongue xenograft, 17-DMAG treatment. Type of series: in vivo, mouse. The conditions noted are these: weekly i.p. injections, compared to vehicle control. On the procedure:
as §1
Mice were tongue grafted with 1×10E5 SCC25 cells. After one week an initial measurement was made with the Xenogen IVIS. Following this, each mouse was i.p injected with either 17-DMAG or vehicle control. […]

Entries after “also recorded” stand apart in the source; their conditions may differ.

On to hyaluronic acid [HA], for which the survival result in series [1] (HA injection of xenograft tumours) is “increased survival”. Also, in series [1] (weekly intra-tumour injection, compared with PBS), the tumour growth rate result is on record as “reduced growth rate; also recorded: reduced the growth of the tumour”. Besides, in series [2], the CD44 staining entry was “increase in CD44 staining” and the “nuclear FRMD4A staining” value was “loss of nuclear FRMD4A staining”. Also, in series [3], the average colony area result is “reduction in average colony area”, the “average colony staining intensity” value is “reduction” and the colony forming efficiency result is “reduction in colony forming efficiency”. Also, in series [4], the toxic effects result is recorded as “no apparent toxic effects”. Moreover, the overall growth rate entry in series [5] is listed as “decrease in growth rate; also recorded: reduces the growth of SCCs”.

For the molecule `COc1cc2ncnc(Nc3cccc(Cl)c3)c2cc1OC` [AG1478], the FRMD4A levels result in series [6] is on record as “downregulation of FRMD4A levels”. Moreover, in series [6] (differentiation marker), the TG1 levels result is recorded as “upregulation of TG1 levels”.

Consider `CO[C@H]1/C=C\C=C(/C)C(=O)NC2=CC(=O)C(NCCN(C)C)=C(C[C@@H](C)C[C@H](OC)[C@H](O)[C@@H](C)/C=C(\C)[C@@H]1OC(N)=O)C2=O` [17-DMAG, 17-Dimethylaminoethylamino-17-demethoxygeldanamycin], for which the “killing of cells in vitro” value in series [7] is reported as “readily killed over a range of concentrations; also recorded: dramatic effect”. Also, the progression of tumours result in series [8] is on record as “slower progression of their tumours”.
